Reference: patent US7914821B2, “Pharmaceutical composition for prevention and/or treatment of bone loss” (KO DA Pharmaceuticals Co., Ltd., priority 2008, dated 2011)

Key:
Bone cells [1] = test: Collagen secretion in bone cells; assay type: cell-based, rat; settings: for collagen secretion in the bone cells: 0.3, 1, 3, 10 μM, FIG. 8B; for increase of collagen content / collagen synthesis: 'at least' figure
Procedure: (§1) Rat primary osteoblast was isolated from the parietal bone of gestation day 18 embryos of Sprague-Dawley rats. After being slaughtered, the embryo rats were obtained from the uteruses of the rats, and calvarium was isolated from the embryo rats. Parietal bone was cut from the calvarium and digested by 0.1% collagenase for 20 minutes to release the bone cells from the bone tissue. The digestion step was repeated five times. The collected bone cells were cultured in α-MEM containing 1% penicillin-streptomycin and 10% FBS in a humidified atmosphere of 5 percent carbon dioxide. When cells were attached and confluence, they were sub-cultured, which was called “passage 2 (P2)”. The passage was for analogizing. 2 to 5 passage cells were used for the experiments.
Bone cells were treated with 0.3, 1, 3, and 10 μM of imperatorin and bergapten, respectively. After treatment, the cells were lysed in 6N HCl at 116° C. for 16 hrs, and dried in a vacuum. The resultant residue was dissolved in an equal volume of water, and then absorbance was measured at […]. The collagen secretion in the control group which was treated with 0.1% DMSO was defined as 100%. Referring to FIG. 8B, imperatorin and bergapten both increased the collagen secretion in the bone cells

Bone cells [2] = test: Mineralization in bone cells (Alizarin red-S); assay type: cell-based, rat; settings: for mineralization of bone cells: 0.3, 1, 3, 10 μM, 14 days, differentiation medium, FIGS. 8C-8D; for increase of mineralization: 'at least' figure
Procedure: as §1
Bone cells were cultured in 96-well Plate containing a differentiation medium (50 μg/ml vitamin C and 10 mM β-glycerophosphate) and treated with 0.3, 1, 3, and 10 μM of imperatorin and bergapten, respectively. The differentiation medium was refreshed every 3 days. 14 days after the cell culture, the bone cells were fixed with 75% ethanol for 30 minutes, and then treated with 40 mM Alizarin red-S at room temperature for 1 hr. After the addition of Alizarin red-S, 10% cetylpyridinium chloride was added, and then absorbance was measured at […]. The mineralization level in the control group which was treated with 0.1% DMSO was defined as 100%. Referring to FIGS. 8C-8D, imperatorin and bergapten both increased the mineralization of bone cells.

BMP-2 gene = BMP-2 gene expression (RT-PCR); assay type: cell-based, rat; settings: for BMP-2 mRNA level, dependence on concentration: 0.3, 1, 3, 10 μM, FIG. 9A; for BMP-2 mRNA level, dependence on treatment time: 1, 3, 6, 12 hrs, FIG. 9B
Procedure: as §1
Bone cells were cultured in 6-well Plate and cultured with 0.3, 1, 3, and 10 μM of imperatorin and bergapten for 1, 3, 6, and 12 hrs, respectively. After treatment, the cells were lysed with TRIzol reagent at room temperature for 5 minutes, and then collected in a centrifuge tube. 0.5 ml of chloroform was added to the centrifuge tube. After the addition of chloroform, the centrifuge tube was well mixed, and centrifuged at 14000×g for 15 minutes at room temperature to obtain a supernatant. The supernatant was mixed with isopropanol (0.25 ml) and then centrifuged at 14000×g at room temperature for 15 minutes to obtain a precipitated RNA. RNA was washed with 75% alcohol, centrifuged at 14000×g for 10 minutes, and dried to give a RNA pellet. The RNA pellet was dissolved in diethyl pyrocarbonate (DEPC) solution and then quantitated by measurement of OD260/280. BMP-2 gene expression (BMP-2 mRNA level) was detected by RT-PCR using Supperscript™ III reverstranscriptase and […] (Applied Biosystems). The BMP-2 mRNA level in the control group which was treated with 0.1% DMSO was defined as 100%.

p38 = test: Phosphorylation of p38 (western blot); assay type: cell-based, rat; settings: 10 μM, 1, 3, 6, 12, 24 hrs; FIG. 10
Procedure: as §1
(§2) Bone cells was cultured in 6-well plate and treated with 10 μM of imperatorin and bergapten for 1, 3, 6, 12, and 24 hrs, respectively. […] Following incubation with the secondary antibody, the membrane was washed three times with PBST, and detected by an […] chemiluminescence using an ECL blotting substrate according to the manufacturer's instructions. […]

EPK protein = test: Phosphorylation of EPK protein (western blot); assay type: cell-based, rat; settings: 10 μM, 1, 3, 6, 12, 24 hrs; FIG. 10
Procedure: as §1, §2

ERK mutant cell (DN-ERK) = test: ALP activity in ERK mutant cell; assay type: cell-based; settings: 10 μM; FIG. 11D
Procedure: Bone cells were cultured and treated with (1) 10 μM SB203580, (2) 10 μM PD98059, (3) 10 μM imperatori, (4) 10 μM bergapten, (5) 10 μM imperatorin+SB203580, (6) 10 μM bergapten+SB203580, (7) 10 μM imperatorin+PD98059 ? (8) 10 μM bergapten+PD98059 for 48 hrs. After treatment, the bone cells were lysed in 0.2% […] solution and centrifuged at 1500×g for 5 minutes. The supernatant was analyzed by an ALP kit such as described above to obtain the ALP activity. The ALP activity in the control group which was treated with 0.1% DMSO was defined as 100%. Referring to FIG. 11C, p38 inhibitor (SB203580) and ERK inhibitor (PD98059) suppressed the imperatorin and bergapten induced-ALP activity.
The same procedure carried out in Example 20 was repeated. The experiment group used alternative cells and treatment comprising: (1) DN-p38 cell, (2) DN-ERK cell, (3) DN-p38 cell+10 μM imperatorin, (4) DN-p38 cell+10 μM bergapten, (5) DN-ERK cell+10 μM imperatorin, (6) DN-ERK cell+10 μM bergapten, (7) normal bone cell+10 μM imperatorin, and (8) normal bone cell+10 μM bergapten. The ALP activity in the control group which was treated with 0.1% DMSO was defined as 100%. Referring to FIG. 11D, the ALP activity was not induced in p38 mutant cell (DN-p38) and ERK mutant cell (DN-ERK) by imperatorin and bergapten.

Compound	collagen secretion in the bone cells (Bone cells [1])	increase of collagen content / collagen synthesis (Bone cells [1])	mineralization of bone cells (Bone cells [2])	increase of mineralization (Bone cells [2]) [%]	BMP-2 mRNA level, dependence on concentration (BMP-2 gene)	BMP-2 mRNA level, dependence on treatment time (BMP-2 gene)	phosphorylation of p38 (p38)	phosphorylation of EPK protein (EPK protein)	ALP activity in ERK mutant cell (DN-ERK) (ERK mutant cell (DN-ERK))
COc1c2ccoc2cc2oc(=O)ccc12 [bergapten]	increased	at least 100%	increased	≥ 105.0	increased according to the increase of the concentration	increased according to the increase of the treatment time	induced	induced	not induced
CC(C)=CCOc1c2occc2cc2ccc(=O)oc12 [imperatorin]	increased	at least 102.0%	increased	≥ 110.0	increased according to the increase of the concentration	increased according to the increase of the treatment time	induced	induced	not induced
